For 11 compounds, Response and EC50 results are on record in ChEMBL document CHEMBL1129876, “The synthesis and activity of spiroindane growth hormone secretagogues” (Bioorg Med Chem Lett, 1997).

The subject of experiment [1] is Canis familiaris. Description: Tested for response in dogs after peroral administration of 0.125 mg/kg; cured/treated is 1/2. In kind it is functional, organism-based. Details: dose 0.125 mg/kg. Conditions: Canis lupus familiaris.
For experiment [2], the system named is Canis familiaris. Kind of experiment: Tested for response in dogs after peroral administration of 0.25 mg/kg; cured/treated is 2/2. The class given is functional, organism-based. On the set-up: dose 0.25 mg/kg. The note with it: Canis lupus familiaris.
In experiment [3] the test system is Canis familiaris. Kind of experiment: Tested for response in dogs after iv administration of 0.025 mg/kg; cured/treated is 1/1. The note with it: Canis lupus familiaris. The class given is functional, organism-based. Details: dose 0.025 mg/kg.
For another experiment, the species on record is Rattus norvegicus. Kind of experiment: The compound was evaluated for its ability to release growth hormone from rat pituitary cells. The class given is functional, cell-based. Conditions: Pituitary gland cell.
In experiment [4] the test system is Canis familiaris. Description: Tested for response in dogs after peroral administration of 1 mg/kg; cured/treated is 2/2. Conditions: Canis lupus familiaris. On the set-up: dose 1 mg/kg. In kind it is functional, organism-based.
The subject of experiment [5] is Canis familiaris. Description: Tested for response in dogs after peroral administration of 0.5 mg/kg; cured/treated is 1/2. The class given is functional, organism-based. Details: dose 0.5 mg/kg. Conditions: Canis lupus familiaris.
Experiment [6] relates to Canis familiaris. Kind of experiment: Tested for response in dogs after iv administration of 0.1 mg/kg; cured/treated is 0/1. The class given is functional, organism-based. On the set-up: dose 0.1 mg/kg. The note with it: Canis lupus familiaris.
For experiment [7], the system named is Canis familiaris. Kind of experiment: Tested for response in dogs after oral administration of 0.5 mg/kg; cured/treated is 1/2. The class given is functional, organism-based. Details: dose 0.5 mg/kg. Conditions: Canis lupus familiaris.
Experiment [8] has as its system Canis familiaris. Description: Tested for response in dogs after iv administration of 0.05 mg/kg; cured/treated is 1/2. On the set-up: dose 0.05 mg/kg. The note with it: Canis lupus familiaris. The class given is functional, organism-based.
The subject of experiment [9] is Canis familiaris. Description: Tested for response in dogs after oral administration of 1 mg/kg; cured/treated is 2/2. The class given is functional, organism-based. Details: dose 1 mg/kg. The note with it: Canis lupus familiaris.
For experiment [10], the system named is Canis familiaris. Description: Tested for response in dogs after iv administration of 0.05 mg/kg; cured/treated is 0/1. The class given is functional, organism-based. Details: dose 0.05 mg/kg. Conditions: Canis lupus familiaris.
Experiment [11] has as its system Canis familiaris. Kind of experiment: Tested for response in dogs after oral administration of 1 mg/kg; cured/treated is 1/1. In kind it is functional, organism-based. Conditions: Canis lupus familiaris. On the set-up: dose 1 mg/kg.
The subject of experiment [12] is Canis familiaris. Kind of experiment: Tested for response in dogs after iv administration of 0.1 mg/kg; cured/treated is 1/1. In kind it is functional, organism-based. Details: dose 0.1 mg/kg. Conditions: Canis lupus familiaris.
Experiment [13] relates to Canis familiaris. Description: Tested for response in dogs after oral administration of 2 mg/kg; cured/treated is 0/1. On the set-up: dose 2 mg/kg. The class given is functional, organism-based. Conditions: Canis lupus familiaris.
Experiment [14] concerns Canis familiaris. Kind of experiment: Tested for response in dogs after iv administration of 0.05 mg/kg; cured/treated is 1/1. Details: dose 0.05 mg/kg. The class given is functional, organism-based. The note with it: Canis lupus familiaris.

Turning to `CC(C)(N)C(=O)N[C@H](CCCc1ccccc1)C(=O)N1CCC2(CC1)CC(=O)c1ccccc12`, the Response result with Canis familiaris [1], in the experiment on Canis familiaris [2] and in the experiment with Canis familiaris [3] was “cured/treated is 1/1” in each case. The EC50 (commonly the concentration that produces a half-maximal response) in the experiment filed under Rattus norvegicus was found to be 0.8 nM.
Compound `CC(C)(N)C(=O)N[C@H](COCc1ccccc1)C(=O)N1CCC2(CC1)CC(O)c1ccccc12` (stereo partly specified) registered an EC50 in the experiment listed under Rattus norvegicus of 4 nM.
Same read-out and setting: in the case of `CC(C)(N)C(=O)N[C@H](Cc1c[nH]c2ccccc12)C(=O)N1CCC2(CC1)c1ccccc1C(O)C2O` (stereo partly specified) it was 30 nM.
In the experiment listed under Rattus norvegicus, `CC(C)(N)C(=O)N[C@H](CCCc1ccccc1)C(=O)N1CCC2(CC1)CC(O)c1ccccc12` (stereo partly specified) registered an EC50 of 0.72 nM.
Take `CC(C)(N)C(=O)N[C@H](CCCc1ccccc1)C(=O)N1CCC2(CCc3ccccc32)CC1`: in the experiment listed under Rattus norvegicus, the EC50 was 10 nM. Further, the Response result in the experiment on Canis familiaris [4], in the experiment with Canis familiaris [5] and in the experiment on Canis familiaris [6] was “cured/treated is 0/1” in each case.
In the experiment listed under Rattus norvegicus, `CC(C)(N)C(=O)N[C@H](Cc1c[nH]c2ccccc12)C(=O)N1CCC2(CC1)c1ccccc1CC2O` (stereo partly specified) displayed an EC50 of 65 nM.
Consider `CC(C)(N)C(=O)N[C@H](COCc1ccccc1)C(=O)N1CCC2(CC1)CC(=O)c1ccccc12`, for which the midpoint of the response in the experiment listed under Rattus norvegicus, the EC50, lay at 4.8 nM.
As to `CC(C)(N)C(=O)N[C@H](Cc1c[nH]c2ccccc12)C(=O)N1CCC2(CC1)CC(=O)c1ccccc12`, the Response result in the experiment with Canis familiaris [7], in the experiment on Canis familiaris [8] and in the experiment on Canis familiaris [9] was “cured/treated is 1/2” in each case. The concentration for a half-maximal effect (EC50) in the experiment filed under Rattus norvegicus was determined as 1.2 nM.
Consider `CC(C)(N)C(=O)N[C@H](COCc1ccccc1)C(=O)N1CCC2(CCc3ccccc32)CC1`, for which a half-maximal effect in the experiment listed under Rattus norvegicus (EC50) was put at 17 nM.
Consider `CC(C)(N)C(=O)N[C@H](Cc1c[nH]c2ccccc12)C(=O)N1CCC2(CCc3ccccc32)CC1`, for which the Response result in the experiment with Canis familiaris [10], in the experiment on Canis familiaris [11], in the experiment with Canis familiaris [12] and in the experiment on Canis familiaris [13] was “cured/treated is 0/1” in each case.
For `CC(C)(N)C(=O)N[C@H](Cc1c[nH]c2ccccc12)C(=O)N1CCC2(CC1)CC(O)c1ccccc12` (stereo partly specified), the Response entry in the experiment on Canis familiaris [14], in the experiment on Canis familiaris [4] and with Canis familiaris [5] was “cured/treated is 1/1” each time. Further, a half-maximal effect in the experiment filed under Rattus norvegicus (EC50) was put at 0.6 nM.
